Test results reported in article PMC11626952, “Preclinical evaluation of radiolabeled tissue factor-targeted peptide for theranostics of hepatocellular carcinoma post percutaneous ethanol injection” (Theranostics, 2024).
Where a SMILES comes first, the peptide text is derived from it. Side-chain parts run from the residue outwards. The star is where a group is joined. NOTA = O=C(O)CN1CCN(CC(=O)O)CCN(CC(=O)*)CC1; PEG8 = NCCOCCOCCOCCOCCOCCOCCOCCOCCC(=O)O

How the values were obtained:
tissue factor (TF) [1] = molecular target: T1, tissue factor (TF) (Mus musculus, UniProt P20352); assay: Al18F-NOTA-tTF PET/CT imaging in Hepa1-6 tumor-bearing mice; type: in vivo; settings: for tumor uptake SUVmax, PEI group: n = 8
T1 construct: Hepa1-6 tumor-bearing mice received an intravenous injection of 100 μL of Al^18F-NOTA-tTF (2.96 MBq); from tissue; host or cells: subcutaneous Hepa1-6 tumours in male C57BL/6 mice
T1 sequence (P20352 29-294): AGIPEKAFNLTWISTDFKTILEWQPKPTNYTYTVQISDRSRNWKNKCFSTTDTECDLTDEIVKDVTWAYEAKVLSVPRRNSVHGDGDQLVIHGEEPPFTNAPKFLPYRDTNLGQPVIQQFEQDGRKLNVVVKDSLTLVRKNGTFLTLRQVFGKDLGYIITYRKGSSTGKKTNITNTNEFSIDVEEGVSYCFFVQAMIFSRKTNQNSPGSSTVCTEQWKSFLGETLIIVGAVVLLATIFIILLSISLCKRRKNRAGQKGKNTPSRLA
Protocol: […] Al^18F-NOTA-tTF PET/CT imaging was conducted on days 1 and 6 post-PEI. Hepa1-6 tumor-bearing mice received an intravenous injection of 100 μL of Al^18F-NOTA-tTF (2.96 MBq). Tumor volume and mouse body weight were monitored every 2 to 3 days. Biodistribution studies were performed on days 1 and 6 post-PEI, with mice divided into PEI and NC groups. Al^18F-NOTA-tTF (1.2 MBq) was administered via tail vein injection, and biodistribution results were expressed as the percentage of injected dose per gram (%ID/g).
Tumor-bearing mice were randomly divided into the HD-PEI treatment (HD-PEI, n = 8), LD-PEI treatment (LD-PEI, n = 8), and negative control (NC, n = 8) groups. Al^18F-NOTA-tTF PET/CT imaging was conducted on days 1, 5, and 12 post-PEI.^ 18F-FDG PET/CT imaging was conducted on days 2, 6, and 13 post-PEI. Hepa1-6 tumor-bearing mice received intravenous injections of 100 μL of Al^18F-NOTA-tTF (2.96 MBq) and^ 18F-FDG (2.96 MBq). Tumor volume and mouse body weight were monitored every 2 days. […]
increased to 95 °C, and maintained for 15 min. The crude product was purified using a C18 Sep-Pak cartridge and sterilized for subsequent applications. Radiolabeling efficiency was assessed using radio-thin-layer chromatography with citrate solvent (0.1 M, pH 4.0) as the mobile phase. […]
(§1) Al18F-NOTA-tTF PET/CT imaging in mice bearing Hepa1-6 xenografts
(§2) Al18F-NOTA-tTF PET/CT imaging of Hepa1-6 tumor-bearing mice were intravenously injected with 100 μL of Al18F-NOTA-tTF (2.96 MBq). In the blocking experiments, unlabeled excess precursors (0.2 mg) were co-injected with Al18F-NOTA-tTF into Hepa1-6 mice (n = 3).
One hour after Al18F-NOTA-tTF injection, the mice were anesthetized and placed in the prone […]
position on the scanning bed. The PET/CT imaging was acquired with a PET/CT scanner (uBio-EXPLORER, United Imaging, China). PET images were collected for 10 min and reconstructed to get more high-resolution images using an ordered subsets expectation maximization (OSEM) algorithm (4 OSEM iterations, resolution: 1.4 mmHD) with scatter, attenuation, and decay corrections applied. Regions of interest (ROIs) were drawn on the CT images and further mapped on PET. The SUVmax of the tumor and muscle were calculated and referred to as the tumor-to- […]
PEI treatment and efficacy monitoring
In this study, we established a model of incomplete ablation of hepatocellular carcinoma using percutaneous ethanol injection (PEI). Once the tumor volume reached approximately 100 mm3, all mice were randomly assigned to treatment, sham treatment, and negative control groups.
During the PEI procedure, an insulin needle was inserted along the long diameter of the tumor, with needle depth set at1/2 to 2/3 of the tumor diameter. Ethanol was injected at a rate of 25 μL every half minute, and the needle was slowly withdrawn after 5 minutes of injection. Ethanol leakage from the tumor was assessed using CT scans immediately following PEI treatment, defined as day 0. Subsequently, 18F-FDG PET/CT imaging was performed on day 1 post-PEI to evaluate therapeutic efficacy. Tumor volume and mouse body weight were monitored every 2 to 3 days. Tumor volume was calculated using the formula volume = (length × width^2)/2.
Radioligand therapy study
Mice were randomly assigned to five groups: PEI (group 1, n = 10), PEI + 0.45 mCi 177Lu-DOTA-tTF (group 2, n = 10), PEI + 0.75 mCi 177Lu-DOTA-tTF (group 3, n = 8), 0.45 mCi 177Lu-DOTA-tTF (group 4, n = 10), and saline (group 5, n = 10). During radiotherapy, one mouse died in […]

in vivo = assay: in vivo; design: species or system mice; settings: mouse, iv, 1.2 MBq, total radioactivity, tumor uptake (biodistribution), PEI group
Protocol: (§3) We randomly divided tumor-bearing mice into the HD-PEI treatment (HD-PEI, n = 8), sham treatment (Sham, n = 8), and negative control groups (NC, n = 6). Al^18F-NOTA-tTF PET/CT imaging was conducted on days 1 and 6 post-PEI. Hepa1-6 tumor-bearing mice received an intravenous injection of 100 μL of Al^18F-NOTA-tTF (2.96 MBq). Tumor volume and mouse body weight were monitored every 2 to 3 days. Biodistribution studies were performed on days 1 and 6 post-PEI, with mice divided into PEI and NC groups. Al^18F-NOTA-tTF (1.2 MBq) was administered via tail vein injection, and biodistribution results were expressed as the percentage of injected dose per gram (%ID/g).

tissue factor (TF) [2] = molecular target: T1, tissue factor (TF); assay: in vivo; design: species or system mice; settings: iv, 1.2 MBq, 1 h
Protocol: as §3

[3] = type: in vitro ADME, bovine
Text: (§4) instant thin layer chromatography. The stability of Al18F-NOTA-tTF in PBS (C) and FBS (D) via
(§5) instant thin layer chromatography. The stability of 68Ga-DOTA-tTF in PBS (E) and FBS (F) via
(§6) instant thin layer chromatography.
(§7) FBS: fetal bovine serum; PBS: phosphate-buffered saline.

[4] = type: physicochemical
Text: as §4, §5, §6, §7

[5] = design: species or system Kunming mice; settings: mouse, in vivo
Protocol: increased to 95 °C, and maintained for 15 min. The crude product was purified using a C18 Sep-Pak cartridge and sterilized for subsequent applications. Radiolabeling efficiency was assessed using radio-thin-layer chromatography with citrate solvent (0.1 M, pH 4.0) as the mobile phase.
Small animal biodistribution and pharmacokinetics study of Al18F-NOTA-tTF A small animal biodistribution experiment was conducted with female Kunming mice (5 weeks). The mice were divided into six groups with 3-4 mice in each group. Al18F-NOTA-tTF (1.2 MBq) was injected into KM mice via the tail vein and a 1% injected dose of Al18F-NOTA-tTF was prepared for reference. At 5 min,15 min, 30 min, 60 min, 90 min and 120 min post-injection, the KM mice were euthanized and organs of interest were collected, wet-weighed. The uptake in various organs and tissues was determined and expressed in terms of the percentage injected dose per gram (%ID/g, mean ± SD) after quantifying the radioactivity of the samples using an […]
For the pharmacokinetic study, each Kunming mouse was intravenously injected with a 3.7 MBq of Al18F-NOTA-tTF. Small amounts of blood were obtained through the orbital vein of the […]
weighed and measured for radioactivity by the γ-counter. The results are expressed as the percentage injected dose per gram (%ID/g).
as §1, §2
One hour after Al18F-NOTA-tTF injection, the mice were anesthetized and placed in the prone

[6] = HD/LD-PEI models, day 1 post-PEI
[7] = HD/LD-PEI models, day 5 post-PEI
[8] = HD/LD-PEI models, day 12 post-PEI
[9] = day 1 post-PEI, 60 min post-injection, n = 6

CC(C)C[C@H](NC(=O)[C@@H](NC(=O)[C@@H](N)CCCNC(=N)N)[C@@H](C)O)C(=O)N[C@@H](C)C(=O)N[C@@H](Cc1ccccc1)C(=O)N[C@H](C(=O)N[C@@H](CCCNC(=N)N)C(=O)N[C@@H](Cc1ccccc1)C(=O)N[C@@H](CCCCNC(=O)CCOCCOCCOCCOCCOCCOCCOCCOCCNC(=O)CN1CCN(CC(=O)O)CCN(CC(=O)O)CC1)C(=O)O)C(C)C [Al^18F-NOTA-tTF] (H-RTLAFVRFK([PEG8-NOTA])-OH)
tumor uptake SUVmax, NC group (tissue factor (TF) [1]; HD/LD-PEI models, day 1): 0.12 ± 0.04
tumor uptake SUVmax, HD-PEI group (tissue factor (TF) [1]; [6]): 0.42 ± 0.17
tumor uptake SUVmax, LD-PEI group (tissue factor (TF) [1]; [6]): 0.54 ± 0.23
tumor uptake SUVmax, NC group (tissue factor (TF) [1]; HD/LD-PEI models, day 5): 0.16 ± 0.06
tumor uptake SUVmax, HD-PEI group (tissue factor (TF) [1]; [7]): 0.33 ± 0.09
tumor uptake SUVmax, LD-PEI group (tissue factor (TF) [1]; [7]): 0.30 ± 0.09
tumor SUVmax, HD-PEI group (tissue factor (TF) [1]; [8]): 0.25 ± 0.10
tumor SUVmax, LD-PEI group (tissue factor (TF) [1]; [8]): 0.31 ± 0.08
tumor uptake SUVmax, blocked (tissue factor (TF) [1]; Hepa1-6 tumor-bearing mice, 0.2 mg unlabeled precursor, 60 min post-injection, n = 3): 0.07 ± 0.010
tumor uptake SUVmax, non-blocked (tissue factor (TF) [1]; Hepa1-6 tumor-bearing mice, 60 min post-injection, n = 3): 0.13 ± 0.005
tumor uptake SUVmax, NC group (tissue factor (TF) [1]; [9]): 0.12 ± 0.03
tumor uptake SUVmax, Sham group (tissue factor (TF) [1]; [9]): 0.15 ± 0.04
tumor uptake SUVmax, PEI group (tissue factor (TF) [1]; day 1 post-PEI, 60 min post-injection): 0.62 ± 0.14
tumor uptake SUVmax, NC group (tissue factor (TF) [1]; day 6 post-PEI, n = 6): 0.11 ± 0.03
tumor uptake SUVmax, Sham group (tissue factor (TF) [1]; day 6 post-PEI, n = 6): 0.11 ± 0.01
tumor uptake SUVmax, PEI group (tissue factor (TF) [1]; day 6 post-PEI): 0.46 ± 0.23
tissue uptake at 1 h (in vivo): 0.77 ± 0.25 %ID/g
tumor uptake (biodistribution), PEI group (tissue factor (TF) [2]): 0.50 ± 0.28 %ID/g
Vitro stability in FBS [3]: > 95% (3 h)
in vitro stability in saline or fetal bovine serum [3]: remained stable
Vitro stability in PBS [4]: > 95% (3 h)
renal clearance [5]: rapid renal clearance
distribution phase half-life (Half-life Fast) ([5]; iv): 1.192 min
elimination phase half-life (Half-life Slow) ([5]; iv): 12.29 min
